From PubChem BioAssay (NCI)
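Test compounds were applied to cells in 96-well plates for 48 hours at 5 doses. The concentration for 50% growth inhibition is given as GI50. TGI: total growth inhibition.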

Legend:
Assay in all cases: NCI anticancer screen, dose series, 48 h; in the data active = GI50 below about 0.43 µM; inactive = the rest
[1] = test system: HOP-62 NSCLC
[2] = test system: NCI-H23 lung
[3] = test system: U251 CNS
[4] = test system: RXF 393 renal
[5] = test system: SN12C renal
[6] = test system: CCRF-CEM leukemia
[7] = test system: KM12 colon
[8] = test system: TK-10 renal
[9] = test system: NCI-H226 lung
[10] = test system: SK-MEL-28 melanoma
[11] = test system: SF-268 CNS
[12] = test system: MDA-MB-231 breast
[13] = test system: NCI-H460 lung
[14] = test system: HOP-92 NSCLC
[15] = test system: SF-539 CNS
[16] = test system: HCC-2998 colon
[17] = test system: EKVX NSCLC
[18] = test system: SNB-75 CNS
[19] = test system: SNB-19 CNS
[20] = test system: T-47D breast
[21] = test system: OVCAR-8 ovarian
[22] = test system: NCI-H522 lung
[23] = test system: SK-MEL-2 melanoma
[24] = test system: HCT-116 colon
[25] = test system: UACC-257 melanoma
[26] = test system: MDA-MB-435
[27] = test system: PC-3 prostate
[28] = test system: HCT-15 colon
[29] = test system: A498 renal
[30] = test system: IGROV1 ovarian
[31] = test system: CAKI-1 renal
[32] = test system: DU-145 prostate
[33] = test system: SF-295 CNS
[34] = test system: BT-549 breast
[35] = test system: MCF7 breast
[36] = test system: HL-60(TB) leukemia
[37] = test system: A549 NSCLC
[38] = test system: OVCAR-3 ovarian
[39] = test system: SW-620 colon
[40] = test system: MOLT-4 leukemia
[41] = test system: COLO 205 colon
[42] = test system: M14 melanoma
[43] = test system: UO-31 renal
[44] = test system: HT29 colon
[45] = test system: SK-OV-3 ovarian
[46] = test system: K-562 leukemia
[47] = test system: OVCAR-5 ovarian
[48] = test system: OVCAR-4 ovarian
[49] = test system: ACHN renal
[50] = test system: HS 578T breast
[51] = test system: SR leukemia
[52] = test system: RPMI-8226 leukemia
[53] = test system: 786-0 renal
[54] = test system: MALME-3M melanoma
[55] = test system: UACC-62 melanoma
[56] = test system: NCI/ADR-RES ovarian
[57] = test system: LOX IMVI melanoma

Cc1cc2c(-c3nc4ccccc4[nH]3)c(O)c(O)cc2c(O)c1-c1c(C)cc2c(-c3nc4ccccc4[nH]3)c(O)c(O)cc2c1O
9620 nM: TGI [19]
22300 nM: TGI [52]
2260 nM: TGI [54]
878 nM: TGI [22]
6840 nM: TGI [35]
218 nM: TGI [43]
3290 nM: TGI [24]
> 28900 nM: TGI [17]
37.4 nM: TGI [29]
913 nM: TGI [41]
1130 nM: TGI [34]
> 24400 nM: TGI [44]
864 nM: TGI [1]
827 nM: TGI [9]
> 42100 nM: TGI [8]
3560 nM: TGI [4]
1580 nM: TGI [33]
2110 nM: TGI [18]
15800 nM: TGI [10]
3720 nM: TGI [11]
1540 nM: TGI [14]
741 nM: TGI [20]
1070 nM: TGI [2]
8080 nM: TGI [5]
> 34400 nM: TGI [27]
8650 nM: TGI [16]
active: GI50 [1] 71.7 nM | GI50 [2] 28.9 nM | GI50 [3] 17.4 nM | GI50 [4] 43.4 nM | GI50 [5] 27.2 nM | GI50 [6] 11.3 nM | GI50 [7] 17 nM | GI50 [8] 38.6 nM | GI50 [9] 56.3 nM | GI50 [10] 97.6 nM | GI50 [11] 31.2 nM | GI50 [12] 83.5 nM | GI50 [13] 7.51 nM | GI50 [14] 23.2 nM | GI50 [15] 34.4 nM | GI50 [16] 36.2 nM | GI50 [17] 31.5 nM | GI50 [18] 38.9 nM | GI50 [19] 20.2 nM | GI50 [20] 16.8 nM | GI50 [21] 66.4 nM | GI50 [22] 44.9 nM | GI50 [23] 99.3 nM | GI50 [24] 8.66 nM | GI50 [25] 136 nM | GI50 [26] 24.8 nM | GI50 [27] 18.7 nM | GI50 [28] 15.6 nM | GI50 [29] 8.75 nM | GI50 [30] 41.6 nM | GI50 [31] 49.6 nM | GI50 [32] 20.5 nM | GI50 [33] 22.7 nM | GI50 [34] 23.5 nM | GI50 [35] 18 nM | GI50 [36] 32.8 nM | GI50 [37] 11.7 nM | GI50 [38] 41.1 nM | GI50 [39] 20.9 nM | GI50 [40] 19 nM | GI50 [41] 23.1 nM | GI50 [42] 80 nM | GI50 [43] 42 nM | GI50 [44] 21.7 nM | GI50 [45] 45 nM | GI50 [46] 19.9 nM | GI50 [47] 85.2 nM | GI50 [48] 38.4 nM | GI50 [49] 29.2 nM | GI50 [50] 62.9 nM | GI50 [51] 35 nM | GI50 [52] 32.3 nM | GI50 [53] 80.1 nM | GI50 [54] 32.1 nM
283 nM: TGI [45]
18300 nM: TGI [26]
775 nM: TGI [7]
> 20300 nM: TGI [47]
10100 nM: TGI [32]
15100 nM: TGI [38]
9660 nM: TGI [37]
> 38900 nM: TGI [12]
16200 nM: TGI [25]
494 nM: TGI [15]
1010 nM: TGI [53]
697 nM: TGI [49]
> 50000 nM: TGI [6] | TGI [21] | TGI [36] | TGI [40] | TGI [42] | TGI [46] | TGI [50] | TGI [51]
112 nM: TGI [13]
16800 nM: TGI [48]
10600 nM: TGI [23]
> 23100 nM: TGI [30]
19800 nM: TGI [28]
628 nM: TGI [31]
> 22000 nM: TGI [39]

CC(=O)Nc1ccc(S(=O)(=O)Nc2nnc(S(N)(=O)=O)s2)cc1
> 100000 nM: TGI [2] | TGI [3] | TGI [4] | TGI [7] | TGI [8] | TGI [9] | TGI [11] | TGI [12] | TGI [13] | TGI [14] | TGI [15] | TGI [16] | TGI [17] | TGI [18] | TGI [19] | TGI [20] | TGI [22] | TGI [24] | TGI [26] | TGI [55] | TGI [28] | TGI [29] | TGI [31] | TGI [32] | TGI [33] | TGI [34] | TGI [35] | TGI [36] | TGI [56] | TGI [37] | TGI [39] | TGI [40] | TGI [41] | TGI [42] | TGI [57] | TGI [43] | TGI [44] | TGI [45] | TGI [47] | TGI [48] | TGI [49] | TGI [51] | TGI [52] | TGI [53] | TGI [54]
